Results on one molecule are retold here after PMC5618657, “Osmolyte-Like Stabilizing Effects of Low GdnHCl Concentrations on D-Glucose/D-Galactose-Binding Protein” (International Journal of Molecular Sciences, 2017).

Where two headings read alike, the source gives them in different places.

Common to all, as to design: species or system E. coli
One test has as its target T1, GGBP/H152C-BADAN (Escherichia coli, UniProt P0AEE5, H175C).
T1 construct: polyhistidine (C); BADAN (fluorescent dye covalently linked to Cys152); made in house; host or cells: E. coli BL21(DE3)
In words: Stopped-flow fluorescence kinetics of glucose binding. Conditions: glucose 0.5 mM, protein 0.6 μM, 23 °C. An excerpt:
The greater affinity of GGBP to glucose in the presence of low GdnHCl concentrations was also manifested by an increase in the binding rate of glucose to the protein in the presence of 0.1 M GdnHCl. It is known that, at high concentrations of one of the reactants, the reaction rate is predominately determined by the content of the substance with a low concentration (pseudo-first order conditions). Therefore, it can be expected that in solutions of high glucose concentration, the rate of the GGBP/H152C-glucose complex formation will be determined by the content of molecules with the semi-closed conformations in a protein ensemble. […]
It is expected that the decay curves should contain at least two rate constants characterizing the interconversion between the protein conformers in the absence of ligand and reflecting the glucose binding to GGBP/H152C [88]. […] Therefore, in practice, the recorded curves are approximated by monoexponential decay.
The kinetics of glucose binding to GGBP/H152C-BADAN in a timeframe from 0 to 0.04 s was measured using the MOS450spectrometerequipped with the stopped-flow mixing module SFM-4 (Bio-Logic, Seyssinet-Pariset, France). The excitation wavelength was 387 nm, the dye fluorescence signal was filtered by cut-off filter at 405 nm. […]

The next test addresses T2, wtGGBP (Escherichia coli, UniProt P0AEE5).
T2 construct: polyhistidine (C); made in house; host or cells: E. coli BL21(DE3)
Briefly: Isothermal titration calorimetry of glucose binding (wild type). Conditions: read-out: Kd (ITC). An excerpt:
(§1) For this purpose, we used isothermal titration calorimetry (ITC) (Figure 7), since this approach allows for the determination of both the stoichiometric and thermodynamic binding parameters. The results of the ITC analysis generally corresponded to the data generated by the fluorescent-based analysis of the GGBP/H152C-BADAN interaction with glucose in solutions with sub-denaturing GdnHCl concentrations. […] The enthalpy contribution to the Gibbs free energy change caused by the interaction of studied proteins with glucose was principal in all solutions tested. This indicates the significant contribution of the hydrogen bonds between protein and glucose to the protein-ligand complex formation, [91] which is in excellent agreement with the X-ray structural data showing that the glucose binding to the GGBP active center is stabilized by 13 hydrogen bonds. […]
(§2) The parameters of the binding of mutant GGBP/H152C and wtGGBP with glucose in buffer, GdnHCl, and urea solutions were determined using the isothermal titration calorimeter TA Nano ITC (TA Instruments, New Castle, DE, USA) at the Resource Center of the Thermogravimetric and Calorimetric Research (Research Park of St. Petersburg State University). […]
(ITC needs no label: the signal is the heat of the interaction.)

The target of a further test is T3, GGBP/H152C (Escherichia coli, UniProt P0AEE5, H175C).
T3 construct: polyhistidine (C); made in house; host or cells: E. coli BL21(DE3)
Briefly: Isothermal titration calorimetry of glucose binding (mutant). The following applies: Kd (ITC).
Text: as §1, §2

[1] abbreviates: solution without denaturants (black).

What is called Kd is the constant that tells how readily two partners part at equilibrium.

T2 sequence (P0AEE5 24-332 limits assumed): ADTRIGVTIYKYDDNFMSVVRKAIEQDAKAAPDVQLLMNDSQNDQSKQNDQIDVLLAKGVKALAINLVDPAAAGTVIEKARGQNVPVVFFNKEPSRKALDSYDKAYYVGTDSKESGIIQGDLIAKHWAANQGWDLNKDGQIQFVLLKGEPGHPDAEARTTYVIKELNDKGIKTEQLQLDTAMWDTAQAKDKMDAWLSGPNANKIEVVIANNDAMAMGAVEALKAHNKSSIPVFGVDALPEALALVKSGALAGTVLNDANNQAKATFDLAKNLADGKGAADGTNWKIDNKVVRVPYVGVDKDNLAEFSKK
T3 sequence (P0AEE5 24-332 H175C limits assumed): as the sequence (P0AEE5 24-332 limits assumed) above, with H152C counted along it
T1 sequence (P0AEE5 24-332 H175C limits assumed): as the sequence (P0AEE5 24-332 limits assumed) above, with H152C counted along it

As for `OC[C@H]1OC(O)[C@H](O)[C@@H](O)[C@@H]1O` (stereo partly drawn) [glucose, D-Glucose], the entries for the “k (rate of GGBP/H152C-glucose complex formation)” value at GGBP/H152C-BADAN (in 0.1 M GdnHCl) and at GGBP/H152C-BADAN (without denaturants) were 508 s⁻¹ and 465 s⁻¹, respectively. The dissociation constant (Kd) was 280 ± 60 nM on wtGGBP (0.1 M GdnHCl (red)), 310 nM on wtGGBP (setting [1]), 2290 ± 80 nM at GGBP/H152C (0.1 M GdnHCl (red)) and 3050 nM at GGBP/H152C (setting [1]).
